The source of these data is patent US4414216A, “Tetrahydrofuran compounds and analogs thereof” (Yoshitomi Phamaceutical Industries, Ltd., priority 1981, dated 1983).

The subject of assay [1] is Motor activity (apomorphine hydrochloride). Briefly: Antiapomorphine effect, Experiment 1: motor activity (Automex) after apomorphine. The assay is classed as in vivo, male dd mice. The note with it: 30 mg/kg intraperitoneal, 30 min before 0.5 mg/kg s.c. apomorphine hydrochloride, activity during 30 minutes, control 566. The protocol: (§1) Antiapomorphine effect was measured by the following methods.
Motor activity was measured with Automex (Columbus Instruments, U.S.A.) in two groups of 3 male dd mice. Thirty minutes after intraperitoneal administration of each test compound (30 mg/kg), 0.5 mg/kg of apomorphine hydrochloride was injected subcutaneously. Immediately after the apomorphine injection, the animals were placed in the transparent plastic cage (26×42×20 cm) and motor activity during 30 minutes was measured. Student's was calculated to indicate the level of significance of the change from control.

Assay [2] shares this test system. Briefly: Antiapomorphine effect, Experiment 2: motor activity (Animex) after apomorphine, ED50. The class given is in vivo, male dd mice. The note with it: Mus musculus, read-out: ED50 (dose which reduced the motor activity by 50% as compared with control). The procedure: as §1
Motor activity was measured with Animex (Columbus Instruments, U.S.A.) in three groups of 5 male dd mice. Sixty minutes after oral administration of each test compound, 0.5 mg/kg of apomorphine hydrochloride was injected subcutaneously. The measurement of motor activity during 20 minutes started just after the apomorphine injection. ED50 was determined graphically as the dose which reduced the motor activity by 50% as compared with control.

Where two headings read alike, the source gives them in different places.

With `O=c1[nH]c2cc(Cl)ccc2n1C1CCN(C[C@@H]2CO[C@H](c3ccc(F)cc3)C2)CC1` (relative stereo) [F], the “Motor Activity” value in assay [1] stood at 5. Also, the ED50 in assay [2] (po) came out at 2.4 mg/kg.
For `O=c1[nH]c2cc(Cl)ccc2n1C1CCN(C[C@H]2CO[C@H](c3ccc(F)cc3)C2)CC1` (relative stereo) [G], in that order: 8 and 0.9 mg/kg.
The matching figures for `Fc1ccc(C2CC(CN3CCC(n4c(=S)[nH]c5ccccc54)CC3)CO2)cc1` (stereo not shown) [A]: 1 and 3.2 mg/kg.
For `O=c1[nH]c2ccccc2n1C1CCN(CC2COC(c3ccc(F)cc3)C2)CC1` (stereo not shown) [B], in that order: 4 and 2.8 mg/kg.
In the case of `O=C1NCN(c2ccccc2)C12CCN(CC1COC(c3ccc(F)cc3)C1)CC2` (stereo not shown) [C], the “Motor Activity” value in assay [1] came out at 0. The ED50 in assay [2] (po) stood at 1.4 mg/kg.
`O=C1CCN(C2CCN(CC3COC(c4ccc(F)cc4)C3)CC2)C(=O)N1c1ccccc1` (stereo not shown) [D]: the “Motor Activity” value in assay [1] was 28. For the same compound, the ED50 in assay [2] (Experiment 2, oral, 60 min before 0.5 mg/kg s.c. apomorphine hydrochloride, activity during 20 minutes) came to 25 mg/kg.
Turning to `O=c1[nH]c2cc(Cl)ccc2n1C1CCN(CC2COC(c3ccc(F)cc3)C2)CC1` (stereo not shown) [E], in assay [1], the “Motor Activity” value was 23. Besides, in assay [2] (po), the ED50 is 0.4 mg/kg.
The matching figures for `O=c1[nH]c2cc(Cl)ccc2n1C1CCN(CC2CCC(c3ccc(F)cc3)O2)CC1` (stereo not shown) [H]: 5 and 12 mg/kg.
